From the supplement of paper PMC8617591

Experiments:
[1] = system: Mycobacterium tuberculosis Erdman (autoluminescent); test: total FIC50 (Loewe) at 50% inhibition, three-drug combination (log2); higher = more antagonistic
Method: (§1)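 DiaMOND equipotent three-drug combination dose responses (10 doses, 1.5- or 2-fold spacing, centred on IC90) against autoluminescent M. tuberculosis Erdman in 8 in vitro models. Read-out is OD600, or luminescence for the intracellular and dormancy models, normalised to untreated wells. Hill-fit Einf, AUC25 and GRinf are potency metrics; FIC50 and FIC90 are total Loewe fractional inhibitory concentrations as log2 (negative = synergy).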

[2] = system: Mycobacterium tuberculosis Erdman (autoluminescent); test: total FIC90 (Loewe) at 90% inhibition, three-drug combination (log2); higher = more antagonistic
Method: as §1

[3] = system: Mycobacterium tuberculosis Erdman (autoluminescent); test: Einf, fitted maximum growth inhibition of three-drug combination (fraction); higher = stronger maximal inhibition
Method: as §1

[4] = system: Mycobacterium tuberculosis Erdman (autoluminescent); test: AUC25, normalised area under dose response up to IC25 (three-drug combination) (fraction (0-1)); higher = more potent at low dose
Method: as §1

[5] = system: Mycobacterium tuberculosis Erdman (autoluminescent); test: GRinf, maximum normalised growth rate inhibition (three-drug combination) (unitless (-1 to 1)); higher = less effect (negative = killing)
Method: as §1

CC(C)/N=c1\cc2n(-c3ccc(Cl)cc3)c3ccccc3nc-2cc1Nc1ccc(Cl)cc1 [clofazimine] + CC[C@@H](CO)NCCN[C@@H](CC)CO [ethambutol] + NC(=O)c1cnccn1 [pyrazinamide]
Details	AUC25, [4]	Einf, [3]	GRinf, [5]	total FIC50, [1]	total FIC90, [2]
in vitro model: acidic pH 5.7, time point: constant (~7 days, model-specific)	0.112	0.725	-0.183	-0.812	–
in vitro model: acidic pH 5.7, time point: terminal (~4-5 doublings, model-specific)	0.0918	0.954	-0.232	0.156	-0.781
in vitro model: intracellular J774, time point: constant = terminal	–	1	-0.398	–	-0.408

Details	AUC25, [4]	Einf, [3]	GRinf, [5]	total FIC50, [1]	total FIC90, [2]
in vitro model: butyrate, time point: constant (~7 days, model-specific)	0.1	0.913	-0.122	-0.0529	–
in vitro model: butyrate, time point: terminal (~4-5 doublings, model-specific)	0.075	0.953	-0.0327	0.0941	-0.127
in vitro model: cholesterol 0.05 mM, time point: constant (~7 days, model-specific)	0.147	0.758	-0.487	–	–
in vitro model: cholesterol 0.05 mM, time point: terminal (~4-5 doublings, model-specific)	0.123	0.86	-0.157	1.39	–
in vitro model: cholesterol-high 0.2 mM, time point: constant (~7 days, model-specific)	0.1	0.955	-0.718	0.509	–
in vitro model: cholesterol-high 0.2 mM, time point: terminal (~4-5 doublings, model-specific)	0.0851	0.998	-0.902	0.581	0.758
in vitro model: dormancy (butyrate + nitrate, low O2), time point: constant (~7 days, model-specific)	0.0979	0.826	0.349	-0.344	–
in vitro model: dormancy (butyrate + nitrate, low O2), time point: terminal (~4-5 doublings, model-specific)	0.124	0.999	-0.842	0.325	1.52
in vitro model: standard 7H9 glycerol, time point: constant = terminal	0.109	0.939	-0.163	0.315	–
in vitro model: valerate, time point: constant (~7 days, model-specific)	0.117	0.792	0.253	0.627	–
in vitro model: valerate, time point: terminal (~4-5 doublings, model-specific)	0.0625	0.898	0.205	0.395	–

CC(C)/N=c1\cc2n(-c3ccc(Cl)cc3)c3ccccc3nc-2cc1Nc1ccc(Cl)cc1 [clofazimine] + CC[C@@H](CO)NCCN[C@@H](CC)CO [ethambutol] + NNC(=O)c1ccncc1 [isoniazid]
Details	AUC25, [4]	Einf, [3]	GRinf, [5]	total FIC50, [1]	total FIC90, [2]
in vitro model: acidic pH 5.7, time point: constant (~7 days, model-specific)	0.0868	0.732	-0.0169	0.498	–
in vitro model: acidic pH 5.7, time point: terminal (~4-5 doublings, model-specific)	0.0876	0.955	-0.0829	0.678	0.618
in vitro model: intracellular J774, time point: constant = terminal	–	0.988	-0.375	–	-0.505

Details	AUC25, [4]	Einf, [3]	GRinf, [5]	total FIC50, [1]	total FIC90, [2]
in vitro model: butyrate, time point: constant (~7 days, model-specific)	0.0914	0.946	-0.098	0.523	–
in vitro model: butyrate, time point: terminal (~4-5 doublings, model-specific)	0.0804	0.976	-0.12	0.504	0.513
in vitro model: cholesterol 0.05 mM, time point: constant (~7 days, model-specific)	0.117	0.751	-0.165	0.257	–
in vitro model: cholesterol 0.05 mM, time point: terminal (~4-5 doublings, model-specific)	0.126	0.852	-0.135	1.57	–
in vitro model: cholesterol-high 0.2 mM, time point: constant (~7 days, model-specific)	0.0601	0.951	-0.518	0.899	–
in vitro model: cholesterol-high 0.2 mM, time point: terminal (~4-5 doublings, model-specific)	0.0945	0.998	-0.932	0.577	0.985
in vitro model: dormancy (butyrate + nitrate, low O2), time point: constant (~7 days, model-specific)	0.0906	0.807	0.507	0.0627	–
in vitro model: dormancy (butyrate + nitrate, low O2), time point: terminal (~4-5 doublings, model-specific)	0.132	0.998	-0.444	-0.121	0.753
in vitro model: standard 7H9 glycerol, time point: constant = terminal	0.118	0.954	-0.121	-0.209	–
in vitro model: valerate, time point: constant (~7 days, model-specific)	0.128	0.873	0.0565	0.974	–
in vitro model: valerate, time point: terminal (~4-5 doublings, model-specific)	0.0871	0.919	0.0494	0.446	-0.137

CC(C)/N=c1\cc2n(-c3ccc(Cl)cc3)c3ccccc3nc-2cc1Nc1ccc(Cl)cc1 [clofazimine] + CC[C@@H](CO)NCCN[C@@H](CC)CO [ethambutol] + O=[N+]([O-])c1cn2c(n1)OC[C@@H](OCc1ccc(OC(F)(F)F)cc1)C2 [pretomanid]
Details	AUC25, [4]	Einf, [3]	GRinf, [5]	total FIC50, [1]	total FIC90, [2]
in vitro model: acidic pH 5.7, time point: constant (~7 days, model-specific)	0.129	0.803	-0.436	0.449	–
in vitro model: acidic pH 5.7, time point: terminal (~4-5 doublings, model-specific)	0.0966	0.954	-0.21	0.46	0.859
in vitro model: intracellular J774, time point: constant = terminal	–	0.987	-0.321	–	-1.25

Details	AUC25, [4]	Einf, [3]	GRinf, [5]	total FIC50, [1]	total FIC90, [2]
in vitro model: butyrate, time point: constant (~7 days, model-specific)	0.103	0.962	-0.142	0.411	–
in vitro model: butyrate, time point: terminal (~4-5 doublings, model-specific)	0.0799	0.981	-0.138	0.442	0.382
in vitro model: cholesterol 0.05 mM, time point: constant (~7 days, model-specific)	0.136	0.718	-0.577	–	–
in vitro model: cholesterol 0.05 mM, time point: terminal (~4-5 doublings, model-specific)	0.131	0.84	-0.0173	2.15	–
in vitro model: cholesterol-high 0.2 mM, time point: constant (~7 days, model-specific)	0.102	0.928	-0.371	1.08	–
in vitro model: cholesterol-high 0.2 mM, time point: terminal (~4-5 doublings, model-specific)	0.0873	0.994	-0.857	0.97	1.51
in vitro model: dormancy (butyrate + nitrate, low O2), time point: constant (~7 days, model-specific)	0.106	0.824	0.446	-0.084	–
in vitro model: dormancy (butyrate + nitrate, low O2), time point: terminal (~4-5 doublings, model-specific)	0.127	0.99	-0.258	-0.114	0.801
in vitro model: standard 7H9 glycerol, time point: constant = terminal	0.126	0.956	-0.273	-0.284	–
in vitro model: valerate, time point: constant (~7 days, model-specific)	0.14	0.867	-0.308	0.805	–
in vitro model: valerate, time point: terminal (~4-5 doublings, model-specific)	0.0932	0.92	0.0599	0.355	0.973
